Results on one compound are retold here after publication PMC9304066, “H2S biogenesis by cystathionine beta-synthase: mechanism of inhibition by aminooxyacetic acid and unexpected role of serine” (Cellular and Molecular Life Sciences: CMLS, 2022).

The target in experiment [1] is T1, tScCBS (Saccharomyces cerevisiae, UniProt P32582).
T1 construct: 6xHis (C); made in house
T1 sequence (P32582 1-345): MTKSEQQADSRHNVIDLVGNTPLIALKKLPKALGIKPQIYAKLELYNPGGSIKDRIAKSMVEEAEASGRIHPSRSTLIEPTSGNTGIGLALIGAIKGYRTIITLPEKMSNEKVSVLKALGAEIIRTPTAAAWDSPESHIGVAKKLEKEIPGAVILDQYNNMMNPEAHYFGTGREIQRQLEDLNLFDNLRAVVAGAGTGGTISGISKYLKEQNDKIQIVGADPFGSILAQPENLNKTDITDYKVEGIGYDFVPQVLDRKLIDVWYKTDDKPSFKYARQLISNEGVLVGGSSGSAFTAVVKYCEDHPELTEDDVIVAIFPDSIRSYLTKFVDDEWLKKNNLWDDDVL
Put plainly: UV-Vis absorption titration of tScCBS (dissociation constants). The experiment is classed as binding. Conditions: tScCBS 1 mg/mL, pH 8.5; decrease in absorbance at 412 nm (AOAA), increase at 460 nm (Ser) or 440 nm (Cys); 3 min incubation; read-out: Dissociation constant Kd (UV-Vis absorption). How it is done:
(§1) CBS enzymes. Recombinant truncated Saccharomyces cerevisiae CBS lacking the C-terminal regulatory domain (residues 346–507) and carrying the C-terminal 6xHis tag (tScCBS) was prepared as described previously. Engineered recombinant Homo sapiens CBS lacking a loop protruding from the central β-strand of the CBS2 domain corresponding to the residues 516–525 (HsCBS; described in detail in [21]) was purchased from GenScript.
(§2) UV − Vis and fluorescence spectroscopy. Absorption spectra were collected on a Tecan Infinite M200 Pro spectrophotometer in a buffer containing 50 mM Tris–HCl pH 8.5, 20 mM NaCl and 0.5 mM tris(2-carboxyethyl)phosphine (TCEP). All the spectra were carried out with a protein concentration of 1 mg/mL with a 1 cm path-length quartz cuvette in a total volume of 150 µL. tScCBS was titrated directly in a cuvette by successive additions of different concentrations of AOAA, Ser and Cys, respectively, and spectra were recorded between 240 and 600 nm after an incubation time of 3 min at RT. Fluorescence emission spectra were collected under the same conditions upon PLP excitation at 410 nm. Blank spectra were subtracted from sample spectra.

Experiment [2] deals with T1, tScCBS. Put plainly: Fluorescence emission titration of tScCBS (PLP excitation at 410 nm). The experiment is classed as binding. The conditions noted are these: tScCBS 1 mg/mL, pH 8.5; decrease in emission at 520 nm, excitation 410 nm; read-out: Dissociation constant Kd (fluorescence). The method, then: as §1, §2
In experiment [3] the target is T1, tScCBS. Put plainly: Kinetics of AOAA binding to tScCBS and displacement by substrate, followed by absorption spectra. Conditions: in the presence of Cys, data not shown. How it is done: as §2
Fig. 2 Spectroscopic rescue of AOAA-inhibited tScCBS by Ser. A Changes in the absorption spectra of tScCBS upon addition of 20 µM AOAA (cyan lines) followed for 1 h. Subsequently, 1 mM Ser (gray lines) was added and spectral changes were followed for additional 1 h. B Representative kinetic fitting of AOAA binding to tScCBS followed at 412 nm. C Representative kinetic fitting of AOAA displacement from tScCBS by Ser by following changes at 370 nm and 460 nm. The kinetic parameters of the observed processes are shown as insets in panels B and C. Far-UV (D) and near-UV (E) CD spectra of tScCBS (black), tScCBS complexed with 20 µM AOAA (cyan) or 1 mM Ser (magenta) and tScCBS complexed with 20 µM AOAA followed by 1 h incubation with 1 mM Ser (green).

Experiment [4] addresses T1, tScCBS. Nature of the experiment: CBS H2S production assay (AzMC fluorometric), tScCBS. The experiment is classed as biochemical. The conditions noted are these: tScCBS; AzMC assay. How it is done: (§3) CBS H2S production assay. H2S-producing activity of CBS, utilizing Cys and Hcy, was determined using a fluorometric assay employing the H2S-selective fluorescent probe 7-azido-4-methylcoumarin (AzMC) as described previously. The reaction mixture in a total volume of 200 µL contained 50 mM Tris–HCl pH 8.6, 5 μM PLP, 2 mM Hcy, 10 μM AzMC and 500 ng tScCBS or HsCBS. The plate was incubated for 10 min at 37°C and the enzymatic activity was triggered by adding 0–50 mM Cys. The fluorescence of the mixtures at 450 nm (excited at 365 nm) was followed for 2 h at 37°C. All measurements were performed in triplicates using Tecan Infinite 200 PRO microplate reader. Kinetic data were analyzed using GraphPad Prism software.

Experiment [5] addresses T2, HsCBS (Homo sapiens, UniProt P35520, DEL516-525).
T2 construct: purchased GenScript
T2 sequence (P35520 with tags, fused parts or gaps DEL516-525): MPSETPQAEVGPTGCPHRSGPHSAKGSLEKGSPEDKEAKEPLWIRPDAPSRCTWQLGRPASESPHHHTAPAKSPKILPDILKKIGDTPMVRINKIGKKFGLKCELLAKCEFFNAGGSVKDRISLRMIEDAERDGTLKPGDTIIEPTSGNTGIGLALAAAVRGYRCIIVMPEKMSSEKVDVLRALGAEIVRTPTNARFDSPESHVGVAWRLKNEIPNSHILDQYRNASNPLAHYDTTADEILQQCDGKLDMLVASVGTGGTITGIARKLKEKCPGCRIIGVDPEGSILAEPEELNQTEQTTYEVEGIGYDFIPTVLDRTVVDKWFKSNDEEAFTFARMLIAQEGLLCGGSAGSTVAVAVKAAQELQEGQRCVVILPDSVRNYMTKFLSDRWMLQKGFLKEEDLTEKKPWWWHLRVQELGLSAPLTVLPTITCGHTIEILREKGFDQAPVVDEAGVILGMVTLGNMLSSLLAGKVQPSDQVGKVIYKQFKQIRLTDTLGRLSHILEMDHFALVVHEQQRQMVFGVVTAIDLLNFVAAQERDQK
Nature of the experiment: CBS H2S production assay (AzMC fluorometric), HsCBS. It counts as biochemical. Conditions: AzMC assay. The method, then:
as §3

Experiment [6] addresses T1, tScCBS. Nature of the experiment: CBL-LDH coupled-coupled CBS assay, tScCBS. It counts as biochemical. The conditions noted are these: tScCBS; CBL-LDH coupled-coupled assay. The method, then:
(§4) CBS coupled-coupled assay. CBS canonical activity utilizing Ser and Hcy was determined using cystathionine beta-lyase (CBL) and lactate-dehydrogenase (LDH) coupled-coupled assay as described previously with a few modifications. Native L-LDH from rabbit muscle was purchased from Sigma (catalog no. L2500) and recombinant CBL was purchased from Creative Enzymes (catalog no. NATE-1146). In a final volume of 150 µL, the reaction mixture contained 50 mM Tris–HCl pH 8.9, 20 µM PLP, 500 µM NADH, 1.3 µM LDH, 0.1 µM CBL, 0–20 mM Ser (or 0–50 mM Cys) and 500 ng of tScCBS or HsCBS. Assays with HsCBS were carried out in the absence or presence of 500 µM CBS allosteric activator S-adenosylmethionine (SAM). The reaction was triggered by the addition of 2 mM Hcy and the oxidation of NADH to NAD^+ was followed by monitoring the decrease in absorbance at 340 nm over time (ε340 = 6220 M^−1.cm^−1). […] All measurements were performed in triplicates using Tecan Infinite 200 PRO microplate reader. Kinetic data were analyzed using GraphPad Prism software.

Experiment [7] has as its target T2, HsCBS. Put plainly: CBL-LDH coupled-coupled CBS assay, HsCBS. The conditions noted are these: CBL-LDH coupled-coupled assay. The experiment is classed as biochemical. The method, then:
as §4

“And” between values parts separate entries of the source, which are not always exact repeats. Identical values can stand only once.

On to `N[C@@H](CS)C(=O)O` [Cys, cysteine], for which the dissociation constant (Kd) (usually the free concentration of one partner at which half of the binding sites on the other are occupied at equilibrium, for simple one-to-one binding) was ~58 µM and 57.3 µM on tScCBS [1]; 48.9 ± 14.6 µM at tScCBS [2]. On tScCBS [3], the “Displacement of AOAA from the tScCBS active site” value is recorded as “did not occur”. The Vmax (as a rule, the rate approached at saturating substrate) on tScCBS [4] was 317.0 ± 24.1 µmol/h/mg; at HsCBS [5] (HsCBS + SAM), 113.3 ± 4.0 µmol/h/mg; at HsCBS [5] (HsCBS – SAM) it was 30.8 ± 1.9 µmol/h/mg; on tScCBS [6], 161.5 ± 4.5 µmol/h/mg; on HsCBS [7] (HsCBS + SAM) it was 97.2 ± 7.1 µmol/h/mg; on HsCBS [7] (HsCBS – SAM), 20.1 ± 1.7 µmol/h/mg. The kcat (as a rule, the maximal rate divided by the concentration of active sites) at tScCBS [4] amounted to 3.4 ± 0.3 s⁻¹; at HsCBS [5] (HsCBS + SAM), 1.93 ± 0.06 s⁻¹; at HsCBS [5] (HsCBS – SAM), 0.52 ± 0.04 s⁻¹; at tScCBS [6], 1.7 ± 0.1 s⁻¹; at HsCBS [7] (HsCBS + SAM) it was 1.66 ± 0.03 s⁻¹; on HsCBS [7] (HsCBS – SAM) it was 0.34 ± 0.02 s⁻¹.
